This passage reports IC50 results from patent US20240190876A1, “Tricyclic Urea Compounds As JAK2 V617F Inhibitors” (Incyte Corporation, priority 2022, published 2024).

The assay addresses T1, FLT3 (Homo sapiens, UniProt P36888).
T1 sequence (P36888 27-993): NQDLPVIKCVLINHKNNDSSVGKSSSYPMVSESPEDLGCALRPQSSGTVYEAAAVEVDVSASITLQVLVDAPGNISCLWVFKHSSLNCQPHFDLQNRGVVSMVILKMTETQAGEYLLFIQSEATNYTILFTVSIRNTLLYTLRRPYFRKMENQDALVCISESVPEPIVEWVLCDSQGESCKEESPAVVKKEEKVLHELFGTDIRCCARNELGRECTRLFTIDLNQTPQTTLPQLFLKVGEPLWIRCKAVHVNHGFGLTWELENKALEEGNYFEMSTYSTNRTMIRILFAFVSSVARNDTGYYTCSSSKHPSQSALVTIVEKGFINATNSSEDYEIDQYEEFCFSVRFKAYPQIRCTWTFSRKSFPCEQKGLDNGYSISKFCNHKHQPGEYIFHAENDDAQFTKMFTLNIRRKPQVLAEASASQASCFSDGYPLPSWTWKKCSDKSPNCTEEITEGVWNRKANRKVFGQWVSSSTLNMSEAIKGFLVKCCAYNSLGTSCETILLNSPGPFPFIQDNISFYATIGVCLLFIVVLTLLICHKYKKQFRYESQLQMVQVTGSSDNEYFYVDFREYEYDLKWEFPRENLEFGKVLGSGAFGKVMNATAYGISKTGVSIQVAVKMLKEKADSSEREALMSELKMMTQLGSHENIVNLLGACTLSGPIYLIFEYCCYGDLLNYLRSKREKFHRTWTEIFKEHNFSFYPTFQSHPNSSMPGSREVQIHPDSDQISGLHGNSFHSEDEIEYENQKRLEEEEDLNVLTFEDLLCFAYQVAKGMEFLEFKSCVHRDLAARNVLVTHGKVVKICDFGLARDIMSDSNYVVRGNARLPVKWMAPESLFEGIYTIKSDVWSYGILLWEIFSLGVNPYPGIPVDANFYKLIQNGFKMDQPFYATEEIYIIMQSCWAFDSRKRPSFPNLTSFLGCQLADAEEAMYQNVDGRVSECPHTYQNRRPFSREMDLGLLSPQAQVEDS
Put plainly: FLT3 Enzymatic Assay. Type of assay: biochemical. The following applies: HTRF kinase assay, 1 mM ATP. As to the method:
The kinase assays were carried out at room temperature in assay buffer (HEPES 50 mM, pH 7.0, NaN3 0.02%, BSA 0.01%, Orthovanadate 0.1 mM, DTT 1 mM, MgCl2 10 mM) in a final volume of 10 μL. Testing compounds were prepared by serial dilution in DMSO and transferred to the plate wells by ECHO liquid handler (Labcyte) with 0.5% DMSO in the final assay. […]. Reactions were initiated by the addition of 5 μL ATP in assay buffer. The final 10 μL kinase reaction consists of 0.011 nM FLT3, 1 mM ATP, 500 nM TK Substrate-biotin and SEB reagent 62.5 nM in assay buffer. […] The plates were then sealed and centrifuged at 1800 rpm for 2 minutes. After 60 minutes incubation at room temperature, the product activity was determined by measuring the fluorescence at 620 nm and 665 nm on Pherastar microplate reader (BMG Labtech). A ratio is calculated (665/620 nm) for each well. Wells with DMSO only were served as the positive controls and wells containing no ATP were used as negative controls. IC50 determination was performed by fitting the curve of percent control activity versus the log of the compound concentration using the GraphPad Prism 7.0 software.

By IC50 is commonly meant the point on the concentration scale where inhibition reaches its midpoint. A lower IC50 goes with higher potency.

Structures are written as SMILES. Some results are limits rather than exact numbers.

Compound `COc1ccc(-c2c(-c3cn(C)nc3OC)[nH]c3ncc4c(c23)n([C@H]2CC[C@@](C)(NC(=O)C3CC3)CC2)c(=O)n4C)cc1` [Example 1, N-((1s,4s)-4-(7-(3-Methoxy-1-methyl-1H-pyrazol-4-yl)-8-(4-methoxyphenyl)-3-methyl-2-oxo-3,6-dihydroimidazo[4,5-d]pyrrolo[2,3-b]pyridin-1(2H)-yl)-1-methylcyclohexyl)cyclopropanecarboxamide] came in with an IC50 of over 2.5 µM.

`[2H]C([2H])([2H])n1ncc2cc(-c3c(-c4cn(C)nc4OC)[nH]c4ncc5c(c34)n([C@H]3CC[C@@](C)(NC(=O)C4CC4)CC3)c(=O)n5C)ccc21` [Example 2, N-((1s,4s)-4-(7-(3-Methoxy-1-methyl-1H-pyrazol-4-yl)-3-methyl-8-(1-(methyl-d3)-1H-indazol-5-yl)-2-oxo-3,6-dihydroimidazo[4,5-d]pyrrolo[2,3-b]pyridin-1(2H)-yl)-1-methylcyclohexyl)cyclopropanecarboxamide] yielded a 50% inhibitory concentration (IC50) of 1.25 to 2.5 µM.

The compound `[2H]C([2H])([2H])n1cc(-c2[nH]c3ncc4c(c3c2-c2ccc(OC)cc2)n([C@H]2CC[C@@](C)(NC(=O)C3CC3)CC2)c(=O)n4C)c(F)n1` [Example 3, N-((1s,4s)-4-(7-(3-fluoro-1-(methyl-d3)-1H-pyrazol-4-yl)-8-(4-methoxyphenyl)-3-methyl-2-oxo-3,6-dihydroimidazo[4,5-d]pyrrolo[2,3-b]pyridin-1(2H)-yl)-1-methylcyclohexyl)cyclopropanecarboxamide] had an IC50 of 0.25 to 1.25 µM.

The compound `[2H]C([2H])([2H])n1cc(-c2[nH]c3ncc4c(c3c2-c2ccc3c(cnn3C([2H])([2H])[2H])c2)n([C@H]2CC[C@@](C)(NC(=O)C3CC3)CC2)c(=O)n4C)c(F)n1` [Example 4, N-((1s,4s)-4-(7-(3-fluoro-1-(methyl-d3)-1H-pyrazol-4-yl)-3-methyl-8-(1-(methyl-d3)-1H-indazol-5-yl)-2-oxo-3,6-dihydroimidazo[4,5-d]pyrrolo[2,3-b]pyridin-1(2H)-yl)-1-methylcyclohexyl)cyclopropanecarboxamide] displayed an IC50 of 0.25 to 1.25 µM.

`[2H]C([2H])([2H])n1ncc2cc(-c3c(-c4cn(CC)nc4F)[nH]c4ncc5c(c34)n([C@H]3CC[C@@](C)(NC(=O)C4CC4)CC3)c(=O)n5C)ccc21` [Example 5, N-((1s,4s)-4-(7-(1-Ethyl-3-fluoro-1H-pyrazol-4-yl)-3-methyl-8-(1-(methyl-d3)-1H-indazol-5-yl)-2-oxo-3,6-dihydroimidazo[4,5-d]pyrrolo[2,3-b]pyridin-1(2H)-yl)-1-methylcyclohexyl)cyclopropanecarboxamide]: the IC50 is 0.025 to 0.25 µM.

`[2H]C([2H])([2H])n1cc(-c2[nH]c3ncc4c(c3c2-c2ccc(OC)cc2)n([C@H]2CC[C@@](C)(NC(=O)[C@H]3C[C@H]3F)CC2)c(=O)n4C([2H])([2H])[2H])c(F)n1` [Example 6, (1R,2R)-2-Fluoro-N-((1s,4S)-4-(7-(3-fluoro-1-(methyl-d3)-1H-pyrazol-4-yl)-8-(4-methoxyphenyl)-3-(methyl-d3)-2-oxo-3,6-dihydroimidazo[4,5-d]pyrrolo[2,3-b]pyridin-1(2H)-yl)-1-methylcyclohexyl)cyclopropane-1-carboxamide] displayed a concentration for half-maximal inhibition (IC50) of 0.025 to 0.25 µM.
